# Source: paper PMC10046369, “Low-Affinity/High-Selectivity Dopamine Transport Inhibition Sufficient to Rescue Cognitive Functions in the Aging Rat” (Biomolecules, 2023)
# Key:
# Experiment in all cases: cell-based
# Set-up in all cases: functional GPCR antagonist screen (Eurofins Cerep), percent inhibition of control agonist response
# Conditions in all cases: antagonist effect, against control agonist; read-out: % Inhibition of Control Agonist Response, Mean
# MCH1 (h) = target: T1, MCH1 (h) (Homo sapiens, UniProt Q99705)
# T1 construct: gene MCHR1
# T1 sequence (Q99705 whole entry): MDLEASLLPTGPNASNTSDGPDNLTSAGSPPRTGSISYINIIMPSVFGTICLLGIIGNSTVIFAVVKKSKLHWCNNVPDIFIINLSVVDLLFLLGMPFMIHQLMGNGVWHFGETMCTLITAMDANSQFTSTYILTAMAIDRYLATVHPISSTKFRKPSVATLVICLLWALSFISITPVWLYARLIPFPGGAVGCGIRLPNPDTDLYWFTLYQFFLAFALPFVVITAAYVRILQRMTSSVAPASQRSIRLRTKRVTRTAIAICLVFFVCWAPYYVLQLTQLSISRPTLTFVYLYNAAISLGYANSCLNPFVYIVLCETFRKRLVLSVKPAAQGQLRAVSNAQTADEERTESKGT
# M2 (h) = target: T2, M2 (h) (Homo sapiens, UniProt P08172)
# T2 construct: gene CHRM2
# T2 sequence (P08172 whole entry): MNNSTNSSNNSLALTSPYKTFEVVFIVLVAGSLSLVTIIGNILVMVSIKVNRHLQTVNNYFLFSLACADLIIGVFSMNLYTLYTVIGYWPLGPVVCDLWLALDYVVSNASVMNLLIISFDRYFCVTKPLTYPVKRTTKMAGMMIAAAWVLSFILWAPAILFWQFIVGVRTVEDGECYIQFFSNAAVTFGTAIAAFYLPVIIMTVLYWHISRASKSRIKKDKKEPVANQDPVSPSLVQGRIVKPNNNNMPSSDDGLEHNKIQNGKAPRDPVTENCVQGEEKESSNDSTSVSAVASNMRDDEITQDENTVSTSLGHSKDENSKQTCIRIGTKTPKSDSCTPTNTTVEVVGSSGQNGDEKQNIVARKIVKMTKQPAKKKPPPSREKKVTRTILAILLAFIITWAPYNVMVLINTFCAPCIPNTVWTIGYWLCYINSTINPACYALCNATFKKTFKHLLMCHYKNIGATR
# PK1 (h) = target: T3, PK1 (h) (Homo sapiens, UniProt Q8TCW9)
# T3 construct: gene PROKR1
# T3 sequence (Q8TCW9 whole entry): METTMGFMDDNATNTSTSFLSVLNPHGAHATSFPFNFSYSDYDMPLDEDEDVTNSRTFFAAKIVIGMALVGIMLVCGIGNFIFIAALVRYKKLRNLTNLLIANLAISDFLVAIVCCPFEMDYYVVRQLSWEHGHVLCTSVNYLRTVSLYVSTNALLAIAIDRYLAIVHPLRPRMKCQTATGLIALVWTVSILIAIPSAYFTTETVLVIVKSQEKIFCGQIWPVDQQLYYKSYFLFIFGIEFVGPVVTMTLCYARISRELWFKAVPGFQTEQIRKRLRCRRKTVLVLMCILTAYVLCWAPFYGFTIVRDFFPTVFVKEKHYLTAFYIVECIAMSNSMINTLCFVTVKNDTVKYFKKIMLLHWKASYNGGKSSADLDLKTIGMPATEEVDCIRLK
# NOP (h) (ORL1) = target: T4, NOP (h) (ORL1) (Homo sapiens, UniProt P41146)
# T4 construct: gene OPRL1
# T4 sequence (P41146 whole entry): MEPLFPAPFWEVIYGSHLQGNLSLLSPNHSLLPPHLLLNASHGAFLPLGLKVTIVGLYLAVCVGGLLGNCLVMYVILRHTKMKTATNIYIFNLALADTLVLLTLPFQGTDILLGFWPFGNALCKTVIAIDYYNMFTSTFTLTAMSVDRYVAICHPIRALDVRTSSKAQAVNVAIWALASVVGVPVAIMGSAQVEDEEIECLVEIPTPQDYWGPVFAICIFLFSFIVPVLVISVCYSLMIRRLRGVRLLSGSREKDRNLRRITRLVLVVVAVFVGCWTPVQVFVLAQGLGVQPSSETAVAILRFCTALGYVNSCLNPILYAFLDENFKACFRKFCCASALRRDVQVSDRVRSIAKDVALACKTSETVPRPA
# LPA2 (h) = target: T5, LPA2 (h) (Homo sapiens, UniProt Q9HBW0)
# T5 construct: gene LPAR2
# M1 (h) = target: T6, M1 (h) (Homo sapiens, UniProt P11229)
# T6 construct: gene CHRM1
# T6 sequence (P11229 whole entry): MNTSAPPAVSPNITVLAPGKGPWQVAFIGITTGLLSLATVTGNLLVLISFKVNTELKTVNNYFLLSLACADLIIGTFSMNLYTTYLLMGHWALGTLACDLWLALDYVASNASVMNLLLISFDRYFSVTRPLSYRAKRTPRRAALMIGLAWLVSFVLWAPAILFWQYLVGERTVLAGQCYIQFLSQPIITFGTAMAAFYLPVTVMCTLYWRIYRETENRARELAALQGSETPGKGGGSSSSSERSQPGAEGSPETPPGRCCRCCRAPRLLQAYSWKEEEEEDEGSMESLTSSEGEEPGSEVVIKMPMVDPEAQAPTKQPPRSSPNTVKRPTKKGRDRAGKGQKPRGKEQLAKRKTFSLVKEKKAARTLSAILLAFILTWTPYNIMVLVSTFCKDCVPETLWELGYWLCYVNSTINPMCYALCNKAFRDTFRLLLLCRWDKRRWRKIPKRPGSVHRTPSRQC
# S1P3 (h) = target: T7, S1P3 (h) (Homo sapiens, UniProt Q99500)
# T7 construct: gene S1PR3
# MCH2 (h) = target: T8, MCH2 (h) (Homo sapiens, UniProt Q969V1)
# T8 construct: gene MCHR2
# EP1 (h) = target: T9, EP1 (h) (Homo sapiens, UniProt P34995)
# T9 construct: gene PTGER1
# NK2 (h) = target: T10, NK2 (h) (Homo sapiens, UniProt P21452)
# T10 construct: gene TACR2
# T10 sequence (P21452 whole entry): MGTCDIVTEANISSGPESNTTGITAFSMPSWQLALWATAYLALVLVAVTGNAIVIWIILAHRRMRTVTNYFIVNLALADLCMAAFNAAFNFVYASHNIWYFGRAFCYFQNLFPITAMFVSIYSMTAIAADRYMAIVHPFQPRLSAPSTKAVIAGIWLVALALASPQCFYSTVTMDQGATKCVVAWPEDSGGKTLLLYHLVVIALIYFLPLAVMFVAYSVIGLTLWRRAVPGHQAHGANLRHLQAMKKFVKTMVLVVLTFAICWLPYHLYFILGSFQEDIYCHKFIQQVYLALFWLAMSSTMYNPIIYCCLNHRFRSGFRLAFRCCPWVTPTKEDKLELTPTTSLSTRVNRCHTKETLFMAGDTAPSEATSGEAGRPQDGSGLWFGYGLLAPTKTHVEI
# MT2 (ML1B) (h) = target: T11, MT2 (ML1B) (h) (Homo sapiens, UniProt P49286)
# T11 construct: gene MTNR1B
# OX1 (h) = target: T12, OX1 (h) (Homo sapiens, UniProt O43613)
# T12 construct: gene HCRTR1
# T12 sequence (O43613 whole entry): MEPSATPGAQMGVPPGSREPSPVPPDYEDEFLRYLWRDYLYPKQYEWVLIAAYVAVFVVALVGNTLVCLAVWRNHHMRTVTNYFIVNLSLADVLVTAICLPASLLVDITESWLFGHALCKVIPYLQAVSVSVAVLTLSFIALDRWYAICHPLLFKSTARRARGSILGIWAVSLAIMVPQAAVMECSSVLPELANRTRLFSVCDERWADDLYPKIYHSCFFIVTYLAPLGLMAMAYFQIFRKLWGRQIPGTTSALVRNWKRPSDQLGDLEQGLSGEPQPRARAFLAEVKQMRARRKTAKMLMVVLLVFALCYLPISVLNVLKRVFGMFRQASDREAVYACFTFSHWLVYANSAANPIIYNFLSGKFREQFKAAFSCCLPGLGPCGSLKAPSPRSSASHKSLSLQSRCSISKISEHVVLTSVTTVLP
# PAR2 (h) = target: T13, PAR2 (h) (Homo sapiens, UniProt P55085)
# T13 construct: gene F2RL1
# S1P4 (h) = target: T14, S1P4 (h) (Homo sapiens, UniProt O95977)
# T14 construct: gene S1PR4
# EP3 (h) = target: T15, EP3 (h) (Homo sapiens, UniProt P43115)
# T15 construct: gene PTGER3
# NMU2 (h) = target: T16, NMU2 (h) (Homo sapiens, UniProt Q9GZQ4)
# T16 construct: gene NMUR2
# PAR1 (h) = target: T17, PAR1 (h) (Homo sapiens, UniProt P25116)
# T17 construct: gene F2R
# MC2 (h) = target: T18, MC2 (h) (Homo sapiens, UniProt Q01718)
# T18 construct: gene MC2R
# T18 sequence (Q01718 whole entry): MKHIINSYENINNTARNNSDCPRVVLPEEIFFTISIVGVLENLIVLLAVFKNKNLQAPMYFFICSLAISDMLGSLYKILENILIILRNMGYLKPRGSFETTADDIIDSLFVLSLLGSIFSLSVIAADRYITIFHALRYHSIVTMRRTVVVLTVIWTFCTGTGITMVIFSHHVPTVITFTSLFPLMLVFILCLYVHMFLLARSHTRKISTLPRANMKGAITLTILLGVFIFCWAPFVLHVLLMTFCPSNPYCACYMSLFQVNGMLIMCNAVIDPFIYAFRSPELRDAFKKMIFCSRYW
# PTH1 (h) = target: T19, PTH1 (h) (Homo sapiens, UniProt Q03431)
# T19 construct: gene PTH1R
# T19 sequence (Q03431 whole entry): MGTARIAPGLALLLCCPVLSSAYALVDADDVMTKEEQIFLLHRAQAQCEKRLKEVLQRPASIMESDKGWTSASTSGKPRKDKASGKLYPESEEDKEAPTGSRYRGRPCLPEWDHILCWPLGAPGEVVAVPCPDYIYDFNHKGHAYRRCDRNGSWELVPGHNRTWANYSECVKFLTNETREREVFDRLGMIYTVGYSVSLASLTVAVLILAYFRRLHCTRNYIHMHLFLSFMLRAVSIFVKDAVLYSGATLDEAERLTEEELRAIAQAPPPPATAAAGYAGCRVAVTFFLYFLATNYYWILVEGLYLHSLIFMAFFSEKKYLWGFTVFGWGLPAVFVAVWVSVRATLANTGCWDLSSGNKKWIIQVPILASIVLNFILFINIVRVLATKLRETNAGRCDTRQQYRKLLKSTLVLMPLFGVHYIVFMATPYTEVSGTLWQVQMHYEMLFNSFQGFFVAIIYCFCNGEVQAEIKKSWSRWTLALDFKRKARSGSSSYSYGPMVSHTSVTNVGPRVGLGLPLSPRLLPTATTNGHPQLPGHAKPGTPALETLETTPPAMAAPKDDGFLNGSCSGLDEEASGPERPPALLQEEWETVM
# S1P5 (h) = target: T20, S1P5 (h) (Homo sapiens, UniProt Q9H228)
# T20 construct: gene S1PR5
# S1P2 (h) = target: T21, S1P2 (h) (Homo sapiens, UniProt O95136)
# T21 construct: gene S1PR2
# T21 sequence (O95136 whole entry): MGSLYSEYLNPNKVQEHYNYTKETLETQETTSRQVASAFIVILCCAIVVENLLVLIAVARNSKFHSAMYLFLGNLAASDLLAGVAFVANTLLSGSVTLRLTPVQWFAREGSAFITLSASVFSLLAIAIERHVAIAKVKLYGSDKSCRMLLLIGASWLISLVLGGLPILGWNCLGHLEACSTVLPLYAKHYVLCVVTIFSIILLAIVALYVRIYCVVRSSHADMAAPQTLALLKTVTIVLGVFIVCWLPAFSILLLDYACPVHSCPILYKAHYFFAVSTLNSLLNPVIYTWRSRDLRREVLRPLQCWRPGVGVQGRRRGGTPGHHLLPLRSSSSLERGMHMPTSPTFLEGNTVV
# M4 (h) = target: T22, M4 (h) (Homo sapiens, UniProt P08173)
# T22 construct: gene CHRM4
# T22 sequence (P08173 whole entry): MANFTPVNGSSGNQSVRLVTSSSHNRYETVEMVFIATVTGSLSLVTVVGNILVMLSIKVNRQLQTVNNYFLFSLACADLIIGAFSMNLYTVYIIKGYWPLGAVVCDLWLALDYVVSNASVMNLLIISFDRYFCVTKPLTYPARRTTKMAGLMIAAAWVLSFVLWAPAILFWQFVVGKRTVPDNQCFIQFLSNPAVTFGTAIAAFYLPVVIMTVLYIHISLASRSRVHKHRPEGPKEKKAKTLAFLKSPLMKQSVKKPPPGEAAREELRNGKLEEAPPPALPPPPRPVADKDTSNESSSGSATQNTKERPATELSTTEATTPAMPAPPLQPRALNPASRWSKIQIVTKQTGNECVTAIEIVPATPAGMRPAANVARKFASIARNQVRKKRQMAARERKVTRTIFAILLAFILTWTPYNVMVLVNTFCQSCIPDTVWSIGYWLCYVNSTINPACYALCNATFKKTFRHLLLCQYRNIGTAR
# NMU1 (h) = target: T23, NMU1 (h) (Homo sapiens, UniProt Q9HB89)
# T23 construct: gene NMUR1
# MRGX1 / MRGPRX1 (h) = MRGX1 / MRGPRX1 (h) (Homo sapiens, UniProt Q96LB2)
# MRGX1 / MRGPRX1 (h), sequence (Q96LB2 whole entry): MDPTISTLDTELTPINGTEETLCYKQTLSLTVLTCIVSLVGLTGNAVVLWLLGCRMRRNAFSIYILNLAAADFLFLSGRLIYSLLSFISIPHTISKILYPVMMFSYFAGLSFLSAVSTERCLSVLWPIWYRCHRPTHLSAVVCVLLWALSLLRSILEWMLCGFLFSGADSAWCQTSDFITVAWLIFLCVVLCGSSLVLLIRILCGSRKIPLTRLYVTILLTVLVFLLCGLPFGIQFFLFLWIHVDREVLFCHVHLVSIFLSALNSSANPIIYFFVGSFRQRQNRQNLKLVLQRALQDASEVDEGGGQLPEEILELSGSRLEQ
# μ (MOP) (h) = target: T24, μ (MOP) (h) (Homo sapiens, UniProt P35372)
# T24 construct: gene OPRM1
structure (smiles),measurement,setting,value
"[O-][S@@+](Cc1cncs1)C(c1ccccc1)c1ccccc1 [S-CE-123, (S)-5-((Benzhydrylsulfinyl)Methyl)Thiazole]",inhibition at 2.8 µM,MCH1 (h),-0.9%
same,inhibition at 2.8 µM,M2 (h),-9.2%
same,inhibition at 2.8 µM,PK1 (h),2.5%
same,inhibition at 2.8 µM,NOP (h) (ORL1),18.4%
same,inhibition at 2.8 µM,LPA2 (h),-10.9%
same,inhibition at 2.8 µM,M1 (h),2.6%
same,inhibition at 2.8 µM,S1P3 (h),12.2%
same,inhibition at 2.8 µM,MCH2 (h),3.1%
same,inhibition at 2.8 µM,EP1 (h),-11.9%
same,inhibition at 2.8 µM,NK2 (h),-0.8%
same,inhibition at 2.8 µM,MT2 (ML1B) (h),6.2%
same,inhibition at 2.8 µM,OX1 (h),-14.5%
same,inhibition at 2.8 µM,PAR2 (h),-19.4%
same,inhibition at 2.8 µM,S1P4 (h),-14.6%
same,inhibition at 2.8 µM,EP3 (h),-30.8%
same,inhibition at 2.8 µM,NMU2 (h),-17.7%
same,inhibition at 2.8 µM,PAR1 (h),2.1%
same,inhibition at 2.8 µM,MC2 (h),3.1%
same,inhibition at 2.8 µM,PTH1 (h),-10.6%
same,inhibition at 2.8 µM,S1P5 (h),3.7%
same,inhibition at 2.8 µM,S1P2 (h),-5.2%
same,inhibition at 2.8 µM,M4 (h),-8.5%
same,inhibition at 2.8 µM,NMU1 (h),-21.3%
same,inhibition at 2.8 µM,MRGX1 / MRGPRX1 (h),4.9%
same,inhibition at 2.8 µM,μ (MOP) (h),5%
